From patent publication US20260151379A1, “SALT TYPE AND CRYSTAL FORM OF COMPLEMENT FACTOR B INHIBITOR, AND PREPARATION METHOD THEREFOR AND APPLICATION THEREOF” (SHANGHAI MEIYUE BIOTECH DEVELOPMENT CO., LTD., priority 2022, published 2026)
Structures can show the parent of a compound that is named as a salt.

Legend:
Type in all cases: physicochemical
[1] = Open storage of crystal form A under acceleration conditions (Example 7); settings: 40° C./75% RH, 72 h
From the text: The crystal form B is a monohydrate of the monohydrochloride of the compound of formula I.

[2] = Stability tests of compound of formula I and its monohydrochloride, phosphate and maleate (Example 4); settings: for Stability (conclusion in words from Table 7): 40° C./75% RH closed/open and 60° C. closed, 2 wks
Protocol: The stability of the compound of formula I, the monohydrochloride of the compound of formula I in Example 1, the phosphate of the compound of formula I in Example 2, and the maleate of the compound of formula I in Example 3 were investigated.
Stability investigation conditions: 40° C./75% RH-closed, 40° C./75% RH-open, and 60° C.-closed; stability investigation content: changes in related substances and crystal forms.
Detection of related substances: about 6-7 mg of a sample was separately weighed out and added to a 10 mL volumetric flask; 50% aqueous acetonitrile solution was added for dissolution; the mixture was diluted to volume; and 10 μL of the sample was injected.

[3] = Solubility tests in water, SGF, FaSSIF, FeSSIF at 37° C. (Example 5)
Protocol: Experimental procedures: 30 mg (in water) or 15 mg of a sample was weighed out and added to a 4 mL vial; 3 mL of a medium to be tested (water, SGF, FaSSIF, or FeSSIF) was added; the mixture was continuously stirred at 37° C.; 0.5 mL of the sample was separately collected at 1 h and 24 h; centrifugation was performed at 12000 rpm for 10 min; the supernatant was diluted with 50% aqueous acetonitrile solution to an appropriate multiple; and the concentration of the supernatant was determined.
Control and linearity: 10 mg of the compound of formula I was weighed out and added to a 50 mL volumetric flask, 50% aqueous acetonitrile solution was added for dissolution, and the mixture was diluted to volume. Two parts were prepared in parallel. The control of the compound of formula I was taken and diluted with 50% aqueous acetonitrile solution to 100 μg/mL, 50 μg/mL, and 10 μg/mL, 5 μL of the sample was injected, and a standard curve was plotted.

[4] = FaSSIF, listed as Compound of formula I Hydrochloride
[5] = FeSSIF, listed as Compound of formula I Hydrochloride
[6] = SGF, listed as Compound of formula I Hydrochloride
[7] = Water, listed as Compound of formula I Hydrochloride

Row | SMILES | Appearance ([2]; 40° C./75% RH-closed-2 wks) | Maximum single impurity % ([2]; 40° C./75% RH-closed-2 wks) | Purity % ([2]; 40° C./75% RH-closed-2 wks) | Total impurity % ([2]; 40° C./75% RH-closed-2 wks) | Appearance ([2]; 40° C./75% RH-open-2 wks) | Maximum single impurity % ([2]; 40° C./75% RH-open-2 wks) | Purity % ([2]; 40° C./75% RH-open-2 wks) | Total impurity % ([2]; 40° C./75% RH-open-2 wks) | Appearance ([2]; 60° C.-closed-2 wks) | Maximum single impurity % ([2]; 60° C.-closed-2 wks) | Purity % ([2]; 60° C.-closed-2 wks) | Total impurity % ([2]; 60° C.-closed-2 wks) | Appearance ([2]; Initial) | Maximum single impurity % ([2]; Initial) | Purity % ([2]; Initial) | Total impurity % ([2]; Initial) | further results
1 | COc1cc(C)c2[nH]ccc2c1CN1CCC(OCC2CC2)CC1c1ccc(C(=O)O)cc1.Cl (centres unmarked) [Crystal form A] |  |  |  |  |  |  |  |  |  |  |  |  |  |  |  |  | Crystal form after open storage [1]: transformed into crystal form B
2 | COc1cc(C)c2[nH]ccc2c1CN1CC[C@H](OCC2CC2)C[C@H]1c1ccc(C(=O)O)cc1 [Compound of formula I Monohydrochloride] | White powder | 0.11% | 99.57% | 0.43% | White powder | 0.10% | 99.59% | 0.41% | White powder | 0.13% | 99.59% | 0.41% | White powder | 0.14% | 99.59% | 0.41% | Stability (conclusion in words from Table 7) ([2]; listed as monohydrochloride): more stable; Final pH [3, 4]: 3.83; Solubility (mg/mL) (1 h) [3, 4]: 0.64 mg/mL; Solubility (mg/mL) (24 h) [3, 4]: 0.39 mg/mL; Final pH [3, 5]: 4.85; Solubility (mg/mL) (1 h) [3, 5]: 0.74 mg/mL; Solubility (mg/mL) (24 h) [3, 5]: 0.44 mg/mL; Final pH [3, 6]: 1.52; Solubility (mg/mL) (1 h) [3, 6]: 5.90 mg/mL; Solubility (mg/mL) (24 h) [3, 6]: 5.97 mg/mL; Final pH [3, 7]: 2.49; Solubility (mg/mL) (1 h) [3, 7]: 11.74 mg/mL; Solubility (mg/mL) (24 h) [3, 7]: 11.14 mg/mL
3 | COc1cc(C)c2[nH]ccc2c1CN1CCC(OCC2CC2)CC1c1ccc(C(=O)O)cc1.O=P(O)(O)O (centres unmarked) [Compound of formula I Phosphate] | White powder | 0.09% | 99.63% | 0.37% | White powder | 0.09% | 99.64% | 0.36% | White powder | 0.08% | 99.62% | 0.38% | White powder | 0.07% | 99.75% | 0.25% | Stability (conclusion in words from Table 7) [2]: stable; Final pH ([3]; FaSSIF): 4.76; Solubility (mg/mL) (1 h) ([3]; FaSSIF): 0.45 mg/mL; Solubility (mg/mL) (24 h) ([3]; FaSSIF): 0.27 mg/mL; Final pH ([3]; FessIF): 4.84; Solubility (mg/mL) (1 h) ([3]; FessIF): 0.64 mg/mL; Solubility (mg/mL) (24 h) ([3]; FessIF): 0.40 mg/mL; Final pH ([3]; SGF): 1.61; Solubility (mg/mL) (1 h) ([3]; SGF): 5.35 mg/mL; Solubility (mg/mL) (24 h) ([3]; SGF): 5.55 mg/mL; Final pH ([3]; Water): 2.53; Solubility (mg/mL) (1 h) ([3]; Water): 8.07 mg/mL; Solubility (mg/mL) (24 h) ([3]; Water): 6.24 mg/mL
